The test system of the assay is HIV-1 latency establishment (HIVGKO reporter virus) in K562 cells. Nature of the assay: HIVGKO dual-color reporter latency establishment in K562 cells (FACS). The assay is classed as cell-based. The text has this: While the effect of FOXO1 inhibitor treatment on productive infection has been tested (Trinite, B. et al. PLoS One 9, (2014)), its effect on latent HIV previously remained unknown. To test the potential of FOXO1 inhibition to affect HIV-1 latency, the new second-generation dual-color reporter virus HIVGKO (LTR-HIV-Δ-env-nefATG-csGFP-EF1α-mKO2) and the FOXO1 inhibitor AS1842856 were employed (FIG. 1, Panel A). In this system, latently-infected K562 cells express the mKO2 fluorophore, while cells containing a productive and active virus express both mKO2 and GFP fluorophores, the latter controlled by the HIV-1 LTR. […] Concomitantly, the proportion of actively infected cells increased. […] Thus, FOXO1 inhibition prevented HIV-1 latency establishment and increased the ratio between actively and latently infected cells.
Briefly, K562 cells were treated with increasing concentrations of the FOXO1 inhibitor AS1842856 just after HIVGKO infection. After 3-4 days, the percentage of latent cells and productive cells were quantified by FACS. In left panel, amount of productive or latent cells relative to the total infection rate (bars) and cell viability (dots). In the right panel, ratios of productive versus latent populations upon increasing concentrations of AS1842856 treatments. Data are represented as mean f SD of triplicate values, representative of three independent experiments. […]

As a reminder, the IC50 is the concentration that inhibits the measured activity by half.

For the compound `CCn1cc(C(=O)O)c(=O)c2c(N)c(F)c(NC3CCCCC3)cc21` [AS1842856, 5-amino-7-(cyclohexylamino)-1-ethyl-6-fluoro-4-oxo-1,4-dihydro-quinoline-3-carboxylic acid], where the note is “Human immunodeficiency virus 1, K562, read-out: IC50 observed in the cell culture system”, the IC50 was found to be 60 nM. Under “K562, increasing concentrations”, the “proportion of latently infected cells” value is reported as “decreased”.

The record behind these values is US20220193209A1, “COMPOSITIONS AND METHODS FOR REACTIVATING LATENT IMMUNODEFICIENCY VIRUS AND/OR TREATING IMMUNODEFICIENCY VIRUS INFECTION” (The J. David Gladstone institutes, a testamentary trust …, priority 2019, published 2022).
